Assay results published in BindingDB's records for patent US11208411 (The Regents of the University of California; Washington …, 2021).
pIC50: −log10 of the molar value.

Molecular target: Proto-oncogene tyrosine-protein kinase Src (Homo sapiens, UniProt P12931)
Assay: Expression and Purification of Active Kinases

Proto-oncogene tyrosine-protein kinase Src, sequence (P12931 2-536 limits assumed): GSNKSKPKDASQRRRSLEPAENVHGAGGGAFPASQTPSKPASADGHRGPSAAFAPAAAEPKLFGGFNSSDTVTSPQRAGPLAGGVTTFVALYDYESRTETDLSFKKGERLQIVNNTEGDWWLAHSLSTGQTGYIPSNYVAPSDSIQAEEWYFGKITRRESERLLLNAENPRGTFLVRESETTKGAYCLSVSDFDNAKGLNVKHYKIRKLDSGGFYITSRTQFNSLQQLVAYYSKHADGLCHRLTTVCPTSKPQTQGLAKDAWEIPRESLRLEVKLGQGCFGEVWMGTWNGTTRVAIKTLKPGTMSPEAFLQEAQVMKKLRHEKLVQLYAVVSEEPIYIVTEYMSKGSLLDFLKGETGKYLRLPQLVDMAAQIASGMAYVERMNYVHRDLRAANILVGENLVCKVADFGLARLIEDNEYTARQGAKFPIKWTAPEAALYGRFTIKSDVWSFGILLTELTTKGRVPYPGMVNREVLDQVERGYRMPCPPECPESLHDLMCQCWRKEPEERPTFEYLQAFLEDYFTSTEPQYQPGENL

CC(C)(C)n1nc(Cc2coc3ccccc23)c2c(N)ncnc21 [US11208411, Cmpd LJQ-145]
pIC50: 5.80
